Data: patent publication US12258336B2, “Preparation of seimicarbazide-sensitive amine oxidase inhibitor and use thereof” (SHANGHAI ENNOVABIO PHARMACEUTICALS CO., LTD., priority 2018, dated 2025)

Experiments:
mouse SSAO protein = biological target: T1, mouse SSAO protein (Mus musculus, UniProt O70423); assay: In vitro inhibitory activity on SSAO/VAP-1 (MAO-Glo assay), mouse; assay type: biochemical
T1 construct: Eli Lilly (provided, not a catalogue product)
T1 sequence (O70423 1-765): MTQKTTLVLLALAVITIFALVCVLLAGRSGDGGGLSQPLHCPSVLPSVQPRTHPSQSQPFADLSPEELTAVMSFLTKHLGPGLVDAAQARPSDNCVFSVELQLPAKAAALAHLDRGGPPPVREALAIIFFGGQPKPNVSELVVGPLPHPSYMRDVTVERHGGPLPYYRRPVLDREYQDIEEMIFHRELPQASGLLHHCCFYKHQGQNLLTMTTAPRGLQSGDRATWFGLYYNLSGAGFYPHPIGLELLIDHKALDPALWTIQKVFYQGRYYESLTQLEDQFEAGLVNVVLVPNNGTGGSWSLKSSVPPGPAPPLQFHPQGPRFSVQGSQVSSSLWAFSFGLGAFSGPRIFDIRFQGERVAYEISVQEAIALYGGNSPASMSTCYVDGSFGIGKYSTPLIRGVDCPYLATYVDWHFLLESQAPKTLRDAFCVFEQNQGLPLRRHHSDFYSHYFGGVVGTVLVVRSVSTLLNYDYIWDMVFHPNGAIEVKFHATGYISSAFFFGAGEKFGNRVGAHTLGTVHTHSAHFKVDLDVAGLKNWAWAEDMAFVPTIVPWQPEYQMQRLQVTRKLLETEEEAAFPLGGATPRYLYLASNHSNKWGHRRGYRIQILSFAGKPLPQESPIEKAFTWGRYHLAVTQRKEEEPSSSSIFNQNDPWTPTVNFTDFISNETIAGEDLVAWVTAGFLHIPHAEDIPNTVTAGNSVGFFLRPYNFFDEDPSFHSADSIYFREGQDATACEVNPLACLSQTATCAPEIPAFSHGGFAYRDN
Procedure: (§1) This assay was used to evaluate the in vitro inhibitory activity of the compounds on SSAO/VAP-1 of different species. Recombinant human SSAO protein, mouse SSAO protein or rat SSAO protein (provided by Eli Lilly) were used. The enzyme activity detection kit, MAO-Glo Assay kit (V1402) was purchased from Promega. Enzyme reaction buffer (50 mM HEPES, 120 mM NaCl, 5 mM KCl, 2 mM CaCl2, 1.4 mM MgCl2, 0.001% Tween-20, pH7.4) was prepared. The test compound was dissolved in DMSO and diluted by 3-fold concentration in gradient. The final concentration of test compound in a 10 μL reaction system was 1 μM to 0.05 nM when SSAO was detected. The content of DMSO in the detection reaction was 1%. After the solution of test compound in DMSO was diluted in the enzyme reaction buffer at a volume ratio of 1:25, 2.5 μL of which was added to each well of detection plate, two replicates for each concentration. 5 μL of SSAO protein diluted in the enzyme reaction buffer was added to each well, the final concentration of which was 10 nM to 80 nM in 10 μL reaction system. The mixture was incubated at room temperature for 10 minutes. 2.5 μL of the reaction substrate diluted in the enzyme reaction buffer was added to each well, the final concentration of which was 10 μM in 10 μL reaction system. After the mixture was reacted at room temperature for 120 minutes, 10 μL of detection reagent was added to each well. The reaction solution was incubated for 20 minutes at room temperature, and the plate was read with Synergy Neo 2 for detection. The value was converted into inhibition rate by the following formula: Inhibition rate=(Signalpositive−Signaltest)/(Signalpositive−Signalnegative)×100%
(§2) Signalpositive was positive control without test compound. Signalnegative was negative control without test compound and SSAO enzyme, and Signaltest was detection value of each compound at different concentrations. IC50 value was calculated by using 4 parameter curve fitting.

rat SSAO protein = biological target: T2, rat SSAO protein (Rattus norvegicus, UniProt O08590); assay: In vitro inhibitory activity on SSAO/VAP-1 (MAO-Glo assay), rat; assay type: biochemical
T2 construct: Eli Lilly (provided, not a catalogue product)
T2 sequence (O08590 1-763): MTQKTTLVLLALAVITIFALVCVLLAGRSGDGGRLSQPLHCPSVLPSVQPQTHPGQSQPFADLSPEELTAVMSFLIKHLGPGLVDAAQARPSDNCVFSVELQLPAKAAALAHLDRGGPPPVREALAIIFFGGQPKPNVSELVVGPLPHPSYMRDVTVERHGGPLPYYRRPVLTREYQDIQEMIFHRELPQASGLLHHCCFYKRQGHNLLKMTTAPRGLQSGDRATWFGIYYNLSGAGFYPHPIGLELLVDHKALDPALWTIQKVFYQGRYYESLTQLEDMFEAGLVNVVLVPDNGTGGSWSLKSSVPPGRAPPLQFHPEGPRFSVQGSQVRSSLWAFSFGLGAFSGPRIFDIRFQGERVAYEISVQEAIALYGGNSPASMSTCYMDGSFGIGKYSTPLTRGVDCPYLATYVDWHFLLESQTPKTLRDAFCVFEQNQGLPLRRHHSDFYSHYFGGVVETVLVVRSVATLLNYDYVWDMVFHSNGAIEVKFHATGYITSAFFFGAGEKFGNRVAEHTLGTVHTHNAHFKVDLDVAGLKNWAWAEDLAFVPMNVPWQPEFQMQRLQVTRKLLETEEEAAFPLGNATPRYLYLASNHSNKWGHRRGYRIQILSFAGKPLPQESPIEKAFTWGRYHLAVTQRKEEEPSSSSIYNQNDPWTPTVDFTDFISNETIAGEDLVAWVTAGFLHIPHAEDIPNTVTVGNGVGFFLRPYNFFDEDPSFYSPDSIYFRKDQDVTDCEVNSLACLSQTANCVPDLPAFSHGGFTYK
Procedure: as §1, §2

Row | IC50 (mouse SSAO protein) [nM] | IC50 (rat SSAO protein) [nM] | Structure (SMILES)
1 | < 100 | < 100 | COC1CC2CC1CN2c1ncc(OC/C(=C/F)CN)cn1 (stereo not drawn) [Example 2]
2 | < 100 | < 100 | NC/C(=C\F)COc1cnc(N2CCN(C3COC3)CC2)nc1 [Example 4, (E)-3-fluoro-2-(((2-(4-(oxbutan-3-yl)piperazin-1-yl)pyrimidin-5-yl)oxo)methyl)prop-2-en-1-amine]

Row | Structure (SMILES) | IC50 (mouse SSAO protein) [nM] | IC50 (rat SSAO protein) [nM]
3 | COC1CC2CCC(C1)N2c1ncc(OC/C(=C/F)CN)cn1 (stereo not drawn) [Example 12] | < 100 | < 100
